Consider 18 compounds from the OPERA property sets (Mansouri et al. 2018).

In the case of `NC(=O)OCCc1ccccc1`, the logP came to 1.5.
Then `CCN(CC)C(=O)OCCCc1ccccn1`, with 2.36; and `CCC(CC)COC(=O)N(CC)CC`, with 3.6.
In the case of `CC(C)OC(=O)N(C)C` it was 1.38.
In turn, `NC(=O)OCCc1c[nH]c2ccccc12` yielded a logP of 1.69.
In the case of `CCC(CC)COC(=O)N(C)C` it was 2.87; in that of `NC(=O)OCCCc1ccccc1`, 1.96; in that of `CCN(CC)C(=O)OCCc1c[nH]c2ccccc12`, 3.3.
`CN(C)C(=O)OCCCc1ccccc1` returned a logP of 2.93.
In the case of `CN(C)C(=O)OCCCc1cccnc1` it was 1.44; in that of `CN(C)C(=O)OCCc1c[nH]c2ccccc12`, 2.54.
Then `CC(Cc1ccccc1)OC(=O)N(C)C` (stereo not drawn), with 2.6; and `NC(=O)OCCCc1cccnc1`, with 0.46; and `CCN(CC)C(=O)OCCc1ccccc1`, with 3.2.
Compound `CCN(CC)C(=O)OCC(C)C` showed a logP of 2.82.
Turning to `CNC(=O)OCc1ccccc1`, the logP was determined as 1.68.
With `CN(C)C(=O)OCCc1ccccc1`, the logP stood at 2.4.
The compound `CCN(CC)C(=O)OCc1ccccc1` displayed a logP of 2.93.
